The values that follow come from US10308660B2, “Compounds and compositions for inhibiting the activity of SHP2” (Novartis AG, priority 2015, dated 2019).

pIC50: −log10 of the molar value.

This experiment has as its target SHP2 (Homo sapiens (Human), UniProt Q06124). Put plainly: SHP2 allosteric inhibition assay (DiFMUP prompt fluorescence). Format: biochemical. As to conditions: 0.5 nM SHP2 activated with 0.5 μM peptide IRS1_pY1172(dPEG8)pY1222; substrate DiFMUP; 25° C.

Chain of SHP2 (Q06124 whole entry): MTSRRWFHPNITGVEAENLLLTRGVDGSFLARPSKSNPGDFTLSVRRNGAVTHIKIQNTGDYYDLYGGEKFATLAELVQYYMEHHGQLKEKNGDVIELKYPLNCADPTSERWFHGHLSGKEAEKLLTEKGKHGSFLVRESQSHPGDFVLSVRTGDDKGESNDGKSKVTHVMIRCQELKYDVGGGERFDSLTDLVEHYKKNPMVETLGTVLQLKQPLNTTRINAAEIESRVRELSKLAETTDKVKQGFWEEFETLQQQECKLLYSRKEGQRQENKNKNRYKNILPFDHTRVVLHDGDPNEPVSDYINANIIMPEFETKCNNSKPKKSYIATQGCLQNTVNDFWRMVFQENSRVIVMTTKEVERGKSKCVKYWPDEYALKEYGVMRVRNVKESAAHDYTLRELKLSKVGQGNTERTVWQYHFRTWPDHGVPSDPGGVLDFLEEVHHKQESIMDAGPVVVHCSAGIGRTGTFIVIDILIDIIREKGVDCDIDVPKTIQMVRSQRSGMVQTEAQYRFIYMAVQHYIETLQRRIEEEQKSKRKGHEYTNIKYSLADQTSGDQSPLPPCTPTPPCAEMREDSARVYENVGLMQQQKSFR

As for `C[C@@H]1OCC2(CCN(c3nc(N)c(-c4ccccc4F)c(=O)n3C)CC2)[C@@H]1N` [Example 153], the pIC50 is 7.34.

For `Cn1c(N2CCC3(CC2)C[C@H](F)C[C@H]3N)nc(N)c(-c2ccccc2)c1=O` [Example 154], the pIC50 is 7.34.

`Cn1c(N2CCC3(CC2)C[C@H](F)C[C@H]3N)nc(N)c(-c2cccc(Cl)c2Cl)c1=O` [Example 155] showed a pIC50 of 7.32.

In the case of `C[C@@H]1OCC2(CCN(c3nc(N)c(-c4ccc(F)cc4F)c(=O)n3C)CC2)[C@@H]1N` [Example 156], the pIC50 is 7.32.

Compound `COc1ccc(-c2c(N)nc(N3CCC4(CC3)CO[C@@H](C)[C@H]4N)n(C)c2=O)cc1F` [Example 157] gave a pIC50 of 7.28.

Compound `C[C@@H]1OCC2(CCN(c3nc(N)c(-c4ccc(F)c(Cl)c4)c(=O)n3C)CC2)[C@@H]1N` [Example 158] gave a pIC50 of 7.28.

In the case of `COc1ccc(-c2c(N)nc(N3CCC4(CC3)CO[C@@H](C)[C@H]4N)n(C)c2=O)cc1` [Example 159], the pIC50 is 7.25.

Regarding `C[C@@H]1OCC2(CCN(c3nc(N)c(-c4ccc(C5CC5)cc4)c(=O)n3C)CC2)[C@@H]1N` [Example 160], the pIC50 is 7.20.

Turning to `Cn1c(N2CCC3(CC2)C[C@@H](C(F)(F)F)C[C@H]3N)nc(N)c(-c2ccccc2)c1=O` [Example 161], the pIC50 is 7.20.

Take `COc1ccc(-c2c(N)nc(N3CCC4(CC3)CO[C@@H](C)[C@H]4N)n(C)c2=O)cc1Cl` [Example 162]: the pIC50 is 7.18.

With `C[C@@H]1OCC2(CCN(c3nc(N)c(-c4ccc(C5CCCCC5)cc4)c(=O)n3C)CC2)[C@@H]1N` [Example 163], the pIC50 is 7.14.

`C[C@@H]1OCC2(CCN(c3nc(N)c(-c4cc(F)cc(F)c4)c(=O)n3C)CC2)[C@@H]1N` [Example 164] had a pIC50 of 7.12.

As for `C[C@@H]1CC2(CCN(c3nc(N)c(-c4ccccc4)c(=O)n3C)CC2)[C@H](N)C1(F)F` [Example 165], the pIC50 is 7.11.

`C[C@@H]1OCC2(CCN(c3nc(N)c(-c4ccc(N(C)C)cc4)c(=O)n3C)CC2)[C@@H]1N` [Example 166]: the pIC50 is 7.06.

The compound `C[C@@H]1CC2(CCN(c3nc(N)c(-c4cccc(Cl)c4Cl)c(=O)n3C)CC2)[C@H](N)C1(F)F` [Example 167] gave a pIC50 of 7.05.

In turn, `C[C@@H]1OCC2(CCN(c3nc(N)c(-c4ccc(-c5ccccc5)cc4)c(=O)n3C)CC2)[C@@H]1N` [Example 168] had a pIC50 of 6.97.

`C[C@@H]1OCC2(CCN(c3nc(N)c(-c4ccc(OC(F)(F)F)cc4)c(=O)n3C)CC2)[C@@H]1N` [Example 169] showed a pIC50 of 6.92.

As to `COCCOc1ccc(-c2c(N)nc(N3CCC4(CC3)CO[C@@H](C)[C@H]4N)n(C)c2=O)cc1` [Example 170], the pIC50 was 6.77.

In the case of `C[C@@H]1OCC2(CCN(c3nc(N)c(-c4cncc(Cl)c4)c(=O)n3C)CC2)[C@@H]1N` [Example 171], the pIC50 was 6.76.

With `C[C@H]1C[C@@H](N)C2(CCN(c3nc(N)c(-c4ccc(Cl)cc4)c(=O)n3C)CC2)C1` [Example 172], the pIC50 is 6.76.

In the case of `COc1ccc(-c2c(N)nc(N3CCC4(CC3)CO[C@@H](C)[C@H]4N)n(C)c2=O)cc1C` [Example 173], the pIC50 is 6.76.

The compound `C[C@@H]1OCC2(CCN(c3nc(N)c(-c4ccc(C(C)(C)C)cc4)c(=O)n3C)CC2)[C@@H]1N` [Example 174] had a negative logarithm of the IC50 (pIC50) of 6.74.

In turn, `C[C@@H]1OCC2(CCN(c3nc(N)c(-c4ccc(C#N)cc4)c(=O)n3C)CC2)[C@@H]1N` [Example 175] had a negative logarithm of the IC50 (pIC50) of 6.59.

`Cc1ccccc1-c1c(N)nc(N2CCC3(CC2)CO[C@@H](C)[C@H]3N)n(C)c1=O` [Example 176] had a pIC50 of 6.57.

Regarding `C[C@@H]1OCC2(CCN(c3nc(N)c(-c4ccc(Cl)c(Cl)c4)c(=O)n3C)CC2)[C@@H]1N` [Example 177], the pIC50 is 6.51.

Compound `C[C@@H]1OCC2(CCN(c3nc(N)c(-c4ccc(C5CCOCC5)cc4)c(=O)n3C)CC2)[C@@H]1N` [Example 178] showed a pIC50 of 6.39.

Regarding `C[C@@H]1OCC2(CCN(c3nc(N)c(-c4cc(Cl)cc(Cl)c4)c(=O)n3C)CC2)[C@@H]1N` [Example 179], the pIC50 was 6.38.

Compound `C[C@@H]1OCC2(CCN(c3nc(N)c(-c4cc(Cl)cc(Cl)c4Cl)c(=O)n3C)CC2)[C@@H]1N` [Example 180] showed a pIC50 of 6.29.

In turn, `COc1ccccc1-c1c(N)nc(N2CCC3(CC2)CO[C@@H](C)[C@H]3N)n(C)c1=O` [Example 181] gave a pIC50 of 6.08.

Take `C[C@@H]1OCC2(CCN(c3nc(N)c(-c4ccccn4)c(=O)n3C)CC2)[C@@H]1N` [Example 182]: the pIC50 was 5.97.

`Cc1ncccc1-c1c(N)nc(N2CCC3(CC2)CO[C@@H](C)[C@H]3N)n(C)c1=O` [Example 183] gave a pIC50 of 5.80.

The compound `C[C@@H]1OCC2(CCN(c3nc(N)c(-c4cccc(C(F)(F)F)c4)c(=O)n3C)CC2)[C@@H]1N` [Example 184] had a pIC50 of 5.77.

Consider `C[C@@H]1OCC2(CCN(c3nc(N)c(-c4ccc(N5CCOCC5)cc4)c(=O)n3C)CC2)[C@@H]1N` [Example 185], for which the pIC50 is 5.67.

`C[C@@H]1OCC2(CCN(c3nc(N)c(-c4cc(Cl)ccc4Cl)c(=O)n3C)CC2)[C@@H]1N` [Example 186] gave a pIC50 of 5.65.

Turning to `C[C@@H]1OCC2(CCN(c3nc(N)c(-c4ccnc(Cl)c4)c(=O)n3C)CC2)[C@@H]1N` [Example 187], the pIC50 is 5.53.

The compound `C[C@@H]1CC2(CCN(c3nc(N)c(-c4ccccc4)c(=O)n3C)CC2)[C@H](N)[C@H]1F` [Example 188] showed a pIC50 of 7.82.

As for `Cn1c(N2CCC3(CC2)COC[C@H]3N)nc(N)c(-c2ccccc2)c1=O` [Example 189], the pIC50 was 7.39.

For the compound `Cn1c(N2CCC3(CC2)COC[C@H]3N)nc(N)c(-c2cccc(Cl)c2Cl)c1=O` [Example 190], the pIC50 is 7.16.

Take `Cn1c(N2CCC3(CCC[C@H]3N)CC2)nc(N)c(-c2ccccc2)c1=O` [Example 191]: the pIC50 was 7.57.

`Cn1c(N2CCC3(CCC[C@H]3N)CC2)nc(N)c(-c2cccc(Cl)c2Cl)c1=O` [Example 192] showed a pIC50 of 7.68.

On to `Cn1c(N2CCC(C)(CN)CC2)nc(N)c(-c2cccc(Cl)c2Cl)c1=O` [Example 193], for which the pIC50 is 7.40.

Compound `Cc1nc(N2CCC3(CC2)CO[C@@H](C)[C@H]3N)n(C)c(=O)c1-c1ccccc1` [Example 197] gave a pIC50 of 6.43.

Compound `CC1(CN)CCN(c2ncc(-c3cccc(Cl)c3Cl)c(=O)[nH]2)CC1` [Example 200] gave a pIC50 below 4.00.

The compound `C[C@@H]1OCC2(CCN(c3ncc(-c4cccc(Cl)c4Cl)c(=O)[nH]3)CC2)[C@@H]1N` [Example 201] gave a pIC50 of 5.48.

For the compound `N[C@@H]1CCCC12CCN(c1ncc(-c3cccc(Cl)c3Cl)c(=O)[nH]1)CC2` [Example 202], the pIC50 is 6.11.

As a reminder, the pIC50 is the IC50 on a negative log10 scale, so that one unit is a factor of ten. Low readings indicate a large IC50, high ones a small IC50.
